Test results reported in patent publication US20260226037A1, “MICROTUBULE TARGETING AGENTS” (ARIEL SCIENTIFIC INNOVATIONS LTD., priority 2022, published 2026).
“Also recorded” adds a separate entry of the source.

Tests used:
[1] = test system: different cancer cell lines; assay: XTT cytotoxicity, various tumor cells; assay type: cell-based; details: XTT assay
Protocol: (§1) The cytotoxic activity of the novel family was evaluated against various tumor cells, including myeloma cells, acute lymphoblastic leukemia cells, acute monocytic leukemia cells, chronic myelogenous leukemia cells, pancreatic cancer cells, breast cancer cells, uterine sarcoma cells, cervix adenocarcinoma cells, ovary cancer cells, melanoma cells, osteosarcoma cells, prostate cancer cells, lung cancer cells, neuroblastoma cells and colorectal adenocarcinoma cells by XTT assay.

MES-SA/DX5 cells = assay: XTT cytotoxicity, MES-SA/DX5; assay type: cell-based
Method in brief: (§2)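 Readout: XTT reduction, used as the measure of cytotoxic effect on cultured tumor cells.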

RPMI 8226 cells = assay: XTT cytotoxicity, RPMI 8226; assay type: cell-based; details: Homo sapiens; RPMI 8226, multiple myeloma, non-resistant; read-out: IC50
Method in brief: as §2

A2780 cells = assay: XTT cytotoxicity, A2780; assay type: cell-based; details: Homo sapiens; A2780, ovarian carcinoma, non-resistant
Protocol: as §1

[2] = Water solubility (microscope images); assay type: physicochemical; details: compared with benzene, furan, thiophene, thiazole or pyridine analogues
Description: Solubility of the synthesized molecules was compared to equivalent molecules having a benzene, furan, thiophene, thiazole or pyridine group instead of oxazole group (Table 2).

MCF7 cells = assay: XTT cytotoxicity, MCF7; assay type: cell-based; details: Homo sapiens; MCF7, breast adenocarcinoma, non-resistant
Method in brief: as §2

NCI-H69 VCR/R cells = assay: XTT cytotoxicity, NCI-H69 VCR/R; assay type: cell-based
Protocol: as §1

myeloma cell lines = assay: XTT cytotoxicity, 10 different myeloma cell lines; assay type: cell-based; details: range over 10 different myeloma cell lines
Protocol: as §1
When this family of compounds were tested on different cell lines from the same type of tumor with different phenotypes there were no significant differences in cytotoxic sensitivity.

HUVEC cells [3] = assay: HUVEC tube formation on Matrigel; assay type: cell-based, human
Protocol: Endothelial cells seeded on Matrigel are able to form three-dimensional capillary structures with a lumen resembling the first angiogenesis steps.
The analysis of anti-angiogenic effect was performed by exposing HUVEC cells to the compounds and seeding them on Matrigel matrix for 4 hours. During this time, control group formed an extensive network lumen-like structure as compared to partially disorganized cells treated with lower doses of SMS077 and SMS182 and disorganized and rounded cells treated with higher doses of the molecules.

HUVEC cells [4] = assay: Disruption of pre-formed HUVEC capillary-like tubes; assay type: cell-based, human; details: tubes formed 4 hours, then 2 hours exposure
Protocol: The analysis of the anti-vascular effect was performed by seeding HUVEC cells on Matrigel matrix, and incubated them until formation of capillary-like tubes, reminiscent of newly formed vessels after 4 hours.

RPMI8226 cells = assay: Cell cycle distribution by flow cytometry; assay type: cell-based
Protocol: Cell cycle arrest is a shared consequence of MTAs treatment. The effects of cell cycle distribution were determined in RPMI8226 cells treated for 6 and 18 hours with a range of concentrations of the molecules. The cells were stained with propidium iodide and cell cycle distribution was measured using a cytoFLEX flow cytometer.

MM1.S cells = assay: XTT cytotoxicity, MM1.S; assay type: cell-based; details: Homo sapiens, multiple myeloma, non-resistant, read-out: IC50
Method in brief: as §2

RPMI-MR20 cells = assay: XTT cytotoxicity, RPMI-MR20; assay type: cell-based
Method in brief: as §2

purified tubulin = assay: Tubulin polymerization, cell-free assay; assay type: biochemical; details: tubulin 2.00 mg/mL; 1, 15 and 30 μM; 37° C., 100 min; vs vehicle
Protocol: The effect of the compounds on their ability to inhibit tubulin polymerization, was tested against a vehicle control by evaluating polymerization of purified tubulin in a cell-free assay where tubulin (2.00 mg/mL) was exposed to vehicle control or 1, 15 and 30 μM of the compounds (n=2). Polymerizations were tracked by an increase in fluorescence excitation wavelength is 340-360 nm and emission wavelength at 410-460 nm. Fluorescence was monitored at 37° C. every 30 sec for 100 min.

NCI-H69 cells = assay: XTT cytotoxicity, NCI-H69; assay type: cell-based; details: Homo sapiens; NCI-H69, small cell lung carcinoma, non-resistant
Protocol: as §1

[5] = test system: colchicine binding site on tubulin protein; assay: EBI competition assay, NALM6 cells; assay type: cell-based
[6] = Xenograft murine myeloma model, body weight and toxicity signs; assay type: in vivo; details: intraperitoneally, during the experiment
Protocol: In vivo anti-cancer efficacy of the molecules was evaluated in a xenograft murine myeloma model. Male SCID mice (6-8 weeks old) were maintained in accordance with Institutional Animal Care Use Committee guidelines. Mice were housed in the Animal Research Facility of Ariel University and experiments were performed in accordance with approved protocols. During the experiment, RPMI8226 myeloma cells in exponential growth were harvested from culture, washed three times with sterile PBS, counted and resuspended in sterile PBS (1.5×10^7cells mouse/0.1 ml PBS) and subcutaneously injected on the right flank of male C.B-17/IcrHsd-Prkdc-scid, […] mice. After two weeks of cells injection, when tumors reached a size between 30-60 mm3, mice were assigned into different groups (n=3-5) and started receiving treatment. Body weights were determined twice weekly along with tumor volume {V=[length×(width)2]/2}measurements using electronical caliper. Mice were sacrificed when mean tumor volume of vehicle treated group reached 1500 mm3, or mice appeared moribund to prevent unnecessary morbidity.
The weight of the tumors was measured at the end of the experiment and expressed as mean tumor weight per group. Body weight is expressed as mean body mice weight per group.

[7] = test system: MESA/SA and MES-SA/DX5, NALM6 and NALM6/ADR, RPMI8226 and RPMI-DO40 cells; assay: Annexin / propidium iodide staining (apoptosis, necrosis); assay type: cell-based; details: 72 hours, graded concentrations
A2780ADR cells = assay: XTT cytotoxicity, A2780ADR; assay type: cell-based
Protocol: as §1

MCF7-VP cells = assay: XTT cytotoxicity, MCF7-VP; assay type: cell-based
Method in brief: as §2

MM1.R cells = assay: XTT cytotoxicity, MM1.R; assay type: cell-based; details: MM.1R; MM1.R, multiple myeloma, dexamethasone resistant; read-out: IC50
Method in brief: as §2

For `CCCCCOC(=O)c1[nH]c2c(c1C)C(=O)CC(c1ncco1)C2` (stereo not shown) [SMS077, pentyl 3-methyl-6-(oxazol-2-yl)-4-oxo-4,5,6,7-tetrahydro-1H-indole-2-carboxylate], the cytotoxic activity [1] was “very potent cytotoxic activity against different cancer cell lines at low nanomolar levels”, the IC50 (MES-SA/DX5 cells; Homo sapiens, MES-SA/DX5, uterine sarcoma, P-gp overexpression) was 65 nM and the “IC50 ratio between resistant and non-resistant cells” value (MES-SA/DX5 cells; MES-SA/DX5 / MES-SA) was 0.508. The IC50 (RPMI 8226 cells) was 26 nM, the IC50 (A2780 cells) was 16 nM and the water solubility [2] was “better water solubility”. For the same molecule, the IC50 (MCF7 cells) was 380 nM, the IC50 (NCI-H69 VCR/R cells; Homo sapiens, NCI-H69 VCR/R, vincristine resistant) was 48 nM and the “IC50 ratio between resistant and non-resistant cells” value (NCI-H69 VCR/R cells; NCI-H69 VCR/R / NCI-H69) was 0.294. For the same molecule, the “resistance of cells to treatment” value (NCI-H69 VCR/R cells; NCI-H69 VCR/R lung carcinoma cells) was “resistant to vincristine but not to SMS077 treatment”, the IC50 (myeloma cell lines) was 14 to 52 nM and the “inhibition of tubule formation” value (HUVEC cells [3]; 4 hours) was “dose dependent inhibition of tubule formation”. The “concentration at which tubule formation was significantly inhibited” value (HUVEC cells [3]; 4 hours of treatment) was 75 nM, the “disruption of pre-formed capillary-like tube network” value (HUVEC cells [4]) was “disrupted the integrity of the network in a dose dependent manner” and the cell cycle arrest (RPMI8226 cells; 6 hours, IC50, IC50x2.5 and IC50x5 concentrations) was “cell cycle arrest in G2M phase”. The subG0 phase (RPMI8226 cells; 18 hours of treatment) was “increased in subG0 phase”, the IC50 (MM1.S cells) was 33 nM and the IC50 (RPMI-MR20 cells; RPMI-MR20, mitoxantrone resistant, read-out: IC50) was 23 nM. The “IC50 ratio between resistant and non-resistant cells” value (RPMI-MR20 cells; RPMI-MR20 / RPMI 8226) was 0.885, the “rate of tubulin polymerization” value (purified tubulin) was “inhibited the rate of tubulin polymerization in a concentration-dependent manner” and the IC50 (NCI-H69 cells) was 163 nM. The “binding to the colchicine binding site” value [5] was “bound to the colchicine binding site”, the “body weight and other signs of potential toxicity” value [6] was “No significant changes in body weight or other signs of potential toxicity” and the “apoptosis and necrosis (annexin, propidium iodide staining)” value [7] was “induced apoptosis and necrosis; also recorded: induces apoptosis and necrosis of treated cells”. For the same molecule, the “IC50 ratio between resistant and non-resistant cells” value (A2780ADR cells; A2780ADR / A2780) was 1.938, the “resistance of cells to treatment” value (A2780ADR cells; A2780ADR ovary carcinoma cells) was “resistant to vincristine but not to SMS077 treatment” and the IC50 (A2780ADR cells; A2780 ADR, A2780ADR, ovarian carcinoma, resistant) was 31 nM. For the same molecule, the IC50 (MCF7-VP cells; Homo sapiens, MCF7-VP, breast adenocarcinoma, MRP overexpression) was 560 nM, the “IC50 ratio between resistant and non-resistant cells” value (MCF7-VP cells; MCF7-VP / MCF7) was 1.474 and the “sensitivity of resistant subline vs parental cells” value (MCF7-VP cells; MCF7-VP vs MCF7) was “same sensitivity”. It also gave an IC50 (MM1.R cells) of 36 nM.
